{
  "source": "patent US20060223182A1",
  "about": "“Device for producing autologous VEGF” (priority 2005, published 2006)",
  "origin": "cited, not measured here",
  "key": {"human macrophages": {"system": "human macrophages", "settings": "0.5 mM H2O2 for about 30 minutes"}, "human keratinocytes [1]": {"system": "human keratinocytes", "settings": "baseline about 200 pg/ml"}, "human keratinocytes [2]": {"system": "human keratinocytes", "settings": "human keratinocytes cultured in H2O2, with cycloheximide"}},
  "note": "Read-outs that look alike come from different tables or passages of the source.",
  "data": [
    {"compound": "TGF-β: growth factor, obtainable from platelet releasate", "values": [
      {"measurement": "increase in steady state levels of VEGF mRNA", "setting": "VSMCs; 0.3 ng/ml TGF-β, 4 hours, 21% O2, printed as 'similar increase' to 2.5% O2 alone", "value": "1.5-2 fold"},
      {"measurement": "increase in the level of VEGF mRNA", "setting": "VSMCs; combined treatment of TGF-β and incubation at 2.5% O2", "value": "~7", "unit": "fold"}
    ]},
    {"compound": "OO", "note": "[H2O2, hydrogen peroxide]", "values": [
      {"measurement": "VEGF produced per cell", "setting": "human macrophages", "value": "about 2.5 fg VEGF/cell"},
      {"measurement": "VEGF production level", "setting": "human keratinocytes [1]; H2O2 250 uM", "value": "about 600 pg/ml"}
    ]},
    {"compound": "C[C@@H]1C[C@@H]([C@H](O)CC2CC(=O)NC(=O)C2)C(=O)[C@@H](C)C1", "note": "[cycloheximide]", "values": [
      {"measurement": "level of mRNA produced by the superinduction relative to mere addition of H2O2", "setting": "human keratinocytes [2]", "value": "at least 10 fold"}
    ]},
    {"compound": "TNF-α", "values": [
      {"measurement": "VEGF production level", "setting": "human keratinocytes [1]; TNF-α 25 ng/ml", "value": "about 600 pg/ml"}
    ]}
  ]
}
